{"source": "patent US11617745B2", "about": "“Compositions and methods for generating hair cells by downregulating FOXO” (Frequency Therapeutics, Inc., priority 2018, dated 2023)", "system": "cochlear Lgr5+ progenitor cells", "assay": "Expansion of Lgr5 cells in 3D culture, Lgr5-EGFP cells counted by flow cytometry", "assay_type": "cell-based, mice", "method": "Neonatal Lgr5-EGFP-IRES-Cre-ER mice (The Jackson Laboratory, strain 8875) were used to analyze the effects of small molecules on cochlear stem cell expansion (see Barker et al., Nature 449, 1003-7 (2007). This strain allowed for visualization and quantification of EGFP cells.\nAll animal studies were conducted under an approved institutional protocol per National Institutes of Health guidelines. Using neonatal animals, cochleae were dissected and the organ of Corti (sensory epithelium) was separated from the stria vascularis (ion transport epithelium) and the modiolus (nerve tissue). Epithelia were then collected and treated with TrypLE for 15-20 minutes to obtain single cells. The cells were then filtered ([…]) and suspended in a Matrigel (Corning) dome for 3D culture seeded at 0.5 cochlea per well.\nExpansion of Lgr5 Cells: Cells were cultured in a 3D system and bathed in a serum free 1:1 mixture of DMEM and F12, supplemented with Glutamax (GIBCO), N2, B27 (Invitrogen), EGF (50 ng/mL; Chemicon), bFGF (50 ng/mL; Chemicon), IGF-1 (50 ng/mL; Chemicon), and small molecules for seven days. Media was changed every other day. Treatments were run in triplicate or quadruplicate.\nQuantification of Cell Proliferation: Lgr5 cells were quantified after 7-10 days. Cell colonies were dissociated into single cells using TrypLE. The cells were then stained with propidium iodide (PI) and analyzed using a flow cytometer to count Lgr5-EGFP cells. The percentage of viable Lgr5 cells was plotted against the concentration in GraphPad Prism.", "note": "Entries after “also recorded” stand apart in the source; their conditions may differ."}
{"smiles": "CCn1cc(C(=O)O)c(=O)c2c(N)c(F)c(NC3CCCCC3)cc21", "note": "[AS1842856]", "values": [{"measurement": "expansion of cochlear Lgr5+ progenitor cells in culture", "setting": "AS1842856 425 nM, background of EFI", "result": "elicits the expansion"}, {"measurement": "enrichment of Lgr5 cells according to percentage", "setting": "AS1842856 (425 nM) combined with VPA (1 mM), background of EFI", "result": "enriched according to percentage"}, {"measurement": "Lgr5-GFP colony formation (images of Lgr5+ cell culture)", "setting": "EFI-AS1842856 alone", "result": "promotes Lgr5-GFP colony formation"}, {"measurement": "Lgr5-GFP colony enrichment (less Lgr5-negative cells in culture)", "setting": "EFI-AS1842856 with VPA added", "result": "enriched when VPA is added"}, {"measurement": "concentration dependence of Lgr5+ cell growth, enrichment and expansion of cochlear progenitor cells", "setting": "background of EFI, range of concentrations", "result": "enhances expansion of cochlear progenitor cells concentration-dependent manner; also recorded: concentration-dependent effects"}]}
